Measurements reported in patent US12185726B2, “Method for efficiently collecting and purifying Orobanche cumana (O. cumana) germination stimulants using aeroponic system and solid-phase extraction (SPE)” (ZHEJIANG UNIVERSITY, priority 2019, dated 2025).

What was measured:
[1] = test system: O. cumana; assay: Biological activities of the four O. cumana germination stimulants detected in stimulants collected under the aeroponic system (UHPLC-TQ-MS detection); parameters: species or system Orobanche cumana; settings: collected sunflower root exudate stimulants
Source text: 7) The ultra-high performance liquid chromatograph-triple quadrupole mass spectrometry (UHPLC-TQ-MS) was adopted to separate and detect the components of obtained O. cumana germination stimulants. The O. cumana germination stimulants in sunflower root exudates were identified using ultra-high performance liquid chromatography-mass spectrometry (UHPLC-MS/MS), and analyzed using Micromass Quattro Premier XE tandem mass spectrometer (Waters, USA). The mass spectrometer was equipped with an electrospray ionization source (ESI) and combined with a UHPLC system. Chromatographic conditions: UHPLC C18 column (100 mm×2.1 mm, 1.7 μm), and mobile phase: water-methanol. Gradient elution process: 30% methanol for 1 min; 5 min of transition to 80% methanol, and holding at 80% methanol for 1 min; and 0.2 min of transition back to 30% methanol. The column was equilibrated in this solvent composition for 1.8 min before proceeding to the next run. Each run: 9 min; column temperature: 50° C.; flow rate: 0.4 mL/min; and injection volume: 30 μl. MS conditions: ESI, in positive ion scanning mode; gas flow rates of atomizer and desolventizing: 50|h^−1 and 800|h^−1, respectively; capillary voltage: 2.7 kV; extraction cone voltage: 20 V, source temperature: 120° C.; and desolventizing gas temperature: 450° C. 3.0×10^−3 mbar argon was used for collision to induce dissociation and fragmentation. The collision energy for each compound was optimized. Multiple response monitoring (MRM) scanning mode was adopted to search for O. cumana germination stimulants. Mass-to-charge ratio scan range data can be found in (Raupp & Spring 2013; Ueno et al. 2014). In this experiment, based on previous literature data, four types of O. cumana germination stimulants were selected for detection. Three are biologically-active sesquiterpenes isolated from O. cumana germination stimulants, namely, dehydrocostus lactone, costunolide, and 8-epixanthatin, and the remaining one is a non-sesquiterpene, namely, heliolactone.

[2] = test system: O. cumana seeds; settings: at nanomolar and micromolar concentrations; sunflower root exudates; cited from earlier work

| Compound | biological activity as O. cumana germination stimulant [1] | stimulation of the germination of O. cumana seeds [2] |
| --- | --- | --- |
| C=C1C(=O)O[C@@H]2C[C@H](C)C(/C=C/C(C)=O)=CC[C@H]12 [8-epixanthatin] | high activities | can stimulate the germination |
| C=C1C(=O)O[C@@H]2/C=C(\C)CC/C=C(\C)CC[C@@H]12 [costunolide] | high activities | can stimulate the germination |
| C=C1CC[C@H]2C(=C)CC[C@H]3C(=C)C(=O)O[C@@H]3[C@@H]12 [dehydrocostus lactone] | high activities | – |
| C=C1C(=O)O[C@@H]2C[C@H](C)C(CCC(C)=O)=CC[C@H]12 [tomentosin] | – | can stimulate the germination |
| heliolactone | very low activity | – |
